Laboratory results: patent US20170001990A1 (Genentech, Inc., priority 2014, published 2017)

biological target: Human recombinant carboxy-terminal his-tagged LDHA (amino acids 2-332) (Homo sapiens, UniProt P00338); assay: LDHA enzyme inhibition assay (NADH fluorescence); conditions: LDHA IC50 (μM), 1 nM LDHA, NADH and pyruvate, stereochemistry of tested sample given

| IC50 | SMILES |
| --- | --- |
| 0.021 µM | O=C1CC(c2ccsc2)(c2cccc(OCc3ccncc3)n2)NC(=O)C1Sc1ccccc1Cl (centres unmarked) [Example 186, 3-(2-chlorophenyl)sulfanyl-6-[6-(4-pyridylmethoxy)-2-pyridyl]-6-(3-thienyl) piperidine-2,4-dione] |
| 0.15 µM | O=C1CC(c2ccsc2)(c2cccc(OCCN3CCCC3=O)n2)NC(=O)C1Sc1ccccc1Cl (centres unmarked) [Example 189, 3-(2-chlorophenyl)sulfanyl-6-[6-[2-(2-oxopyrrolidin-1-yl)ethoxy]-2-pyridyl]-6-(3-thienyl)piperidine-2,4-dione] |
| 0.092 µM | CC1(C)OCC(CCOc2cccc(C3(c4ccsc4)CC(=O)C(Sc4ccccc4Cl)C(=O)N3)n2)O1 (centres unmarked) [Example 190, 3-(2-chlorophenyl)sulfanyl-6-[6-[2-(2,2-dimethyl-1,3-dioxolan-4-yl)ethoxy]-2-pyridyl]-6-(3-thienyl) piperidine-2,4-dione] |
| 0.158 µM | CC1(C)OCC(CCOc2cccc(C3(c4ccsc4)CC(=O)C(Sc4ccccc4Cl)C(=O)N3)n2)O1 (centres unmarked) [Example 191, 3-(2-chlorophenyl)sulfanyl-6-[6-[2-(2,2-dimethyl-1,3-dioxolan-4-yl)ethoxy]-2-pyridyl]-6-(3-thienyl) piperidine-2,4-dione] |
| 0.183 µM | CC1(C)OCC(CCOc2cccc(C3(c4ccsc4)CC(=O)C(Sc4ccccc4Cl)C(=O)N3)n2)O1 (centres unmarked) [Example 211, 3-(2-chlorophenyl)sulfanyl-6-[6-[2-(2,2-dimethyl-1,3-dioxolan-4-yl)ethoxy]-2-pyridyl]-6-(3-thienyl) piperidine-2,4-dione] |
| 0.01 µM | O=C1CC(c2ccsc2)(c2cccc(Oc3ccc(F)c(F)c3)n2)NC(=O)C1Oc1ccccc1Cl (centres unmarked) [Example 217, 3-(2-chlorophenoxy)-6-[6-(3,4-difluorophenoxy)-2-pyridyl]-6-(3-thienyl) piperidine-2,4-dione] |
| 0.162 µM | O=C1CC(c2ccsc2)(c2cccc(NCCC3CCCCC3)n2)NC(=O)C1Sc1ccccc1Cl (centres unmarked) [Example 220, 3-(2-chlorophenyl)sulfanyl-6-[6-(2-cyclohexyl-ethylamino)-2-pyridyl]-6-(3-thienyl)piperidine-2,4-dione] |
| 0.02 µM | O=C1CC(c2ccsc2)(c2cccc(OCC3CCC3)n2)NC(=O)C1Sc1ccccc1Cl (centres unmarked) [Example 224, 3-(2-chlorophenyl)sulfanyl-6-[6-(cyclobutylmethoxy)-2-pyridyl]-6-(3-thienyl) piperidine-2,4-dione] |
| 0.02 µM | CC(C)(C)COc1cccc(C2(c3ccsc3)CC(=O)C(Sc3ccccc3Cl)C(=O)N2)n1 (centres unmarked) [Example 226, 3-(2-chlorophenyl)sulfanyl-6-[6-(2,2-dimethylpropoxy)-2-pyridyl]-6-(3-thienyl) piperidine-2,4-dione] |
| 0.011 µM | Cn1ccnc1COc1cccc(C2(c3ccsc3)CC(=O)C(Sc3ccccc3Cl)C(=O)N2)n1 (centres unmarked) [Example 229, 3-(2-chlorophenyl)sulfanyl-6-[6-[(1-methylimidazol-2-yl)methoxy]-2-pyridyl]-6-(3-thienyl)piperidine-2,4-dione] |
| 0.009 µM | CC(Oc1cccc(C2(c3ccsc3)CC(=O)C(Sc3ccccc3Cl)C(=O)N2)n1)C(F)(F)F (centres unmarked) [Example 231, 3-(2-chlorophenyl)sulfanyl-6-(3-thienyl)-6-[6-(2,2,2-trifluoro-1-methyl-ethoxy)-2-pyridyl]piperidine-2,4-dione] |
| 0.009 µM | O=C1CC(c2ccsc2)(c2cccc(N3CC(C4CCOCC4)C3)n2)NC(=O)C1Sc1ccccc1Cl (centres unmarked) [Example 232, 3-(2-chlorophenyl)sulfanyl-6-[6-(3-tetrahydropyran-4-ylazetidin-1-yl)-2-pyridyl]-6-(3-thienyl) piperidine-2,4-dione] |
| 0.003 µM | O=C1CC(c2ccsc2)(c2cccc(N3CC(C4CCOCC4)C3)n2)NC(=O)C1Sc1ccccc1Cl (centres unmarked) [Example 240, 3-(2-chlorophenyl)sulfanyl-6-[6-(3-tetrahydropyran-4-ylazetidin-1-yl)-2-pyridyl]-6-(3-thienyl) piperidine-2,4-dione] |
| 0.004 µM | O=C(NCC1CC1)c1cccc(C2(c3ccsc3)CC(=O)C(Sc3ccccc3Cl)C(=O)N2)n1 (centres unmarked) [Example 242, 6-[5-(2-chlorophenyl)sulfanyl-4,6-dioxo-2-(3-thienyl)-2-piperidyl]-N-(cyclopropylmethyl) pyridine-2-carboxamide] |
| 0.01 µM | COCC(C)Oc1cccc(C2(c3ccsc3)CC(=O)C(Sc3ccccc3Cl)C(=O)N2)n1 (centres unmarked) [Example 246, 3-(2-chlorophenyl)sulfanyl-6-[6-(2-methoxy-1-methyl-ethoxy)-2-pyridyl]-6-(3-thienyl)piperidine-2,4-dione] |
| 0.01 µM | CCOCC(C)Oc1cccc(C2(c3ccsc3)CC(=O)C(Sc3ccccc3Cl)C(=O)N2)n1 (centres unmarked) [Example 247, 3-((2-chlorophenyl)thio)-6-(6-((1-ethoxypropan-2-yl)oxy)pyridin-2-yl)-6-(thiophen-3-yl)piperidine-2,4-dione] |
| 0.005 µM | CCC1(COc2cccc([C@@]3(c4ccsc4)CC(=O)C(Sc4ccccc4Cl)C(=O)N3)n2)COC1 (some centres unmarked) [Example 248] |
| 0.036 µM | CC/C=C/COc1cccc(C2(c3ccsc3)CC(=O)C(Sc3ccccc3Cl)C(=O)N2)n1 (centres unmarked) [Example 250, 3-(2-chlorophenyl)sulfanyl-6-(6-pent-2-enoxy-2-pyridyl)-6-(3-thienyl) piperidine-2,4-dione] |
| 0.081 µM | O=C1CC(c2ccsc2)(c2cccc(OCC3CCC(CO)CC3)n2)NC(=O)C1Sc1ccccc1Cl (centres unmarked) [Example 253] |
| 0.102 µM | COc1cc(-c2cccc(C3(c4ccsc4)CC(=O)C(Sc4ccccc4Cl)C(=O)N3)n2)ccc1F (centres unmarked) [Example 255, 3-((2-chlorophenyl)thio)-6-(6-(4-fluoro-3-methoxy-phenyl)pyridin-2-yl)-6-(thiophen-3-yl)piperidine-2,4-dione] |
| 0.016 µM | O=C1CC(c2ccsc2)(c2cccc(Cc3ccc(F)cc3)n2)NC(=O)C1Sc1ccccc1Cl (centres unmarked) [Example 257, 3-((2--chlorophenyl)thio)-6-(6-(4-fluorobenzyl)pyridin-2-yl)-6-(thiophen-3-yl)piperidine-2,4-dione] |
| 0.087 µM | O=C1CC(c2ccsc2)(c2cccc(Cc3ccc(F)cc3F)n2)NC(=O)C1Sc1ccccc1Cl (centres unmarked) [Example 258, 3-((2-chlorophenyl)thio)-6-(6-(2,4-difluorobenzyl)pyridin-2-yl)-6-(thiophen-3-yl)piperidine-2,4-dione] |
| 0.011 µM | COc1cc(Cc2cccc(C3(c4ccsc4)CC(=O)C(Sc4ccccc4Cl)C(=O)N3)n2)ccc1F (centres unmarked) [Example 259, 3-((2-chlorophenyl)thio)-6-(6-(4-fluoro-3-methoxy-benzyl)pyridin-2-yl)-6-(thiophen-3-yl)piperidine-2,4-dione] |
| 0.006 µM | O=C1CC(c2ccsc2)(c2cccc(-c3ccncc3)n2)NC(=O)C1Sc1ccccc1Cl (centres unmarked) [Example 260, 6-([2,4′-bipyridin]-6-yl)-3-((2-chlorophenyl)thio)-6-(thiophen-3-yl)piperidine-2,4-dione] |
| 0.039 µM | O=C1CC(c2ccsc2)(c2cccc(-c3ccnc(N4CCOCC4)c3)n2)NC(=O)C1Sc1ccccc1Cl (centres unmarked) [Example 261, 3-((2-chlorophenyl)thio)-6-(2′-morpholino-[2,4′-bipyridin]-6-yl)-6-(thiophen-3-yl)piperidine-2,4-dione] |
| 0.086 µM | CCN(c1ccc(F)cc1)c1cccc(C2(c3ccsc3)CC(=O)C(Sc3ccccc3Cl)C(=O)N2)n1 (centres unmarked) [Example 263, 3-((2-chlorophenyl)thio)-6-(6-(ethyl(4-fluorophenyl)amino)pyridin-2-yl)-6-(thiophen-3-yl)piperidine-2,4-dione] |
| 0.077 µM | Cc1cc(Nc2cccc(C3(c4ccsc4)CC(=O)C(Sc4ccccc4Cl)C(=O)N3)n2)n(C)n1 (centres unmarked) [Example 264, 3-((2-chlorophenyl)thio)-6-(6-((1,3-dimethyl-1H-pyrazol-5-yl)amino)pyridin-2-yl)-6-(thiophen-3-yl)piperidine-2,4-dione] |
| 1.64 µM | O=C1CC(c2ccsc2)(c2cccc(CC3CCOCC3)n2)NC(=O)C1Sc1ccccc1Cl (centres unmarked) [Example 267, 3-((2-chlorophenyl)thio)-6-(6-((tetrahydro-2H-pyran-4-yl)methyl)pyridin-2-yl)-6-(thiophen-3-yl) piperidine-2,4-dione] |
| 0.073 µM | Cn1nccc1Nc1cccc(C2(c3ccsc3)CC(=O)C(Sc3ccccc3Cl)C(=O)N2)n1 (centres unmarked) [Example 269, 3-((2-chlorophenyl)thio)-6-(6-((1-methyl-1H-pyrazol-5-yl)amino)pyridin-2-yl)-6-(thiophen-3-yl)piperidine-2,4-dione] |
| 0.099 µM | Cn1ccc(Nc2cccc(C3(c4ccsc4)CC(=O)C(Sc4ccccc4Cl)C(=O)N3)n2)n1 (centres unmarked) [Example 270, 3-((2-chlorophenyl)thio)-6-(6-((1-methyl-1H-pyrazol-3-yl)amino)pyridin-2-yl)-6-(thiophen-3-yl)piperidine-2,4-dione] |

| SMILES | IC50 |
| --- | --- |
| CCC(C)COc1cccc(C2(c3ccsc3)CC(=O)C(Sc3ccccc3Cl)C(=O)N2)n1 (centres unmarked) [Example 188, 3-(2-chlorophenyl)sulfanyl-6-[6-(2-methylbutoxy)-2-pyridyl]-6-(3-thienyl) piperidine-2,4-dione] | 0.015 µM |
| CCC(C)COc1cccc(C2(c3ccsc3)CC(=O)C(Sc3ccccc3Cl)C(=O)N2)n1 (centres unmarked) [Example 210, 3-(2-chlorophenyl)sulfanyl-6-[6-(2-methylbutoxy)-2-pyridyl]-6-(3-thienyl) piperidine-2,4-dione] | 0.008 µM |
| O=C1CC(c2ccsc2)(c2cccc(OC3CCC3)n2)NC(=O)C1Sc1ccccc1Cl (centres unmarked) [Example 222, 3-(2-chlorophenyl)sulfanyl-6-[6-(cyclobutoxy)-2-pyridyl]-6-(3-thienyl) piperidine-2,4-dione] | 0.322 µM |
| CC(C)(C)OCCOc1cccc(C2(c3ccsc3)CC(=O)C(Sc3ccccc3Cl)C(=O)N2)n1 (centres unmarked) [Example 230, 6-[6-(2-tert-butoxyethoxy)-2-pyridyl]-3-(2-chloro-phenyl)sulfanyl-6-(3-thienyl)piperidine-2,4-dione] | 0.022 µM |
| COC(C)(C)CCOc1cccc(C2(c3ccsc3)CC(=O)C(Sc3ccccc3Cl)C(=O)N2)n1 (centres unmarked) [Example 249, 3-(2-chlorophenyl)sulfanyl-6-[6-(3-methoxy-3-methyl-butoxy)-2-pyridyl]-6-(3-thienyl)piperidine-2,4-dione] | 0.099 µM |
